Test results: patent US8765748B2, “Indazolyl, benzimidazolyl, benzotriazolyl substituted indolinone derivatives as kinase inhibitors useful in the treatment of cancer” (University Health Network, priority 2007, dated 2014)
Counter-ions that a name gives are not always drawn.

Experiments:
[1] = target: T1, human PLK4 (Homo sapiens, UniProt O00444); test: PLK4 Inhibition Assay (indirect ELISA); type: biochemical; details: 15 μM ATP, 4 nM GST-PLK4; read-out: PLK4 IC50 Ranges
T1 construct: amino terminal GST fusion of residues 1-391 of human PLK4; made in house; host or cells: E. coli
T1 sequence (O00444 1-391): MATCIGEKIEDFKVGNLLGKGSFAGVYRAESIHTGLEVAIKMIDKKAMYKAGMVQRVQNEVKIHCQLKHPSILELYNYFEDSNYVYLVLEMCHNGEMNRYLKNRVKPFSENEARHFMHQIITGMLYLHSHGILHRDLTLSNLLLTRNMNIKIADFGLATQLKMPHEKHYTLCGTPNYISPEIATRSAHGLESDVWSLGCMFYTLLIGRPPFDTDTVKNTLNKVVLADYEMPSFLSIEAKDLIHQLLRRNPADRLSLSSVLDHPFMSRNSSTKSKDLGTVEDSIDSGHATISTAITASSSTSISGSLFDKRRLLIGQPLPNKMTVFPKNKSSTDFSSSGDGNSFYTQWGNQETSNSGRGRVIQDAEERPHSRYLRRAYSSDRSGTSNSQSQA
Method: The protein was purified from clarified cell extracts after induction at 15° C. overnight using glutathione sepharose, gel permeation chromatography, and ion exchange (Resource Q). The resulting protein was dephosphorylated with lambda phosphatase (NEB cat #P0753), and resolved from the phosphatase using gluthione sepharose. The dephosphorylated GST-PLK4 was stored in aliquots at −80° C. until use. PLK4 activity was measured using an indirect ELISA detection system. […] Compounds were pre-incubated in the presence of enzyme for 15 minutes prior to addition of ATP and the activity remaining quantified using the above described activity assay. […] The IC50 value was determined using a non-linear 4 point logistic curve fit (XLfit4, IDBS) with the formula; (A+(B/(1+((x/C)^D)))), where A=background value, B=range, C=inflection point, D=curve fit parameter.

[2] = target: T2, Aurora B (Homo sapiens, UniProt Q96GD4); test: Aurora B Inhibition Assay (Z-Lyte); type: biochemical; details: 128 μM ATP, 28 nM Aurora B; read-out: Aurora B IC50 Ranges
T2 construct: purchased Invitrogen PV3970
T2 sequence (Q96GD4 whole entry): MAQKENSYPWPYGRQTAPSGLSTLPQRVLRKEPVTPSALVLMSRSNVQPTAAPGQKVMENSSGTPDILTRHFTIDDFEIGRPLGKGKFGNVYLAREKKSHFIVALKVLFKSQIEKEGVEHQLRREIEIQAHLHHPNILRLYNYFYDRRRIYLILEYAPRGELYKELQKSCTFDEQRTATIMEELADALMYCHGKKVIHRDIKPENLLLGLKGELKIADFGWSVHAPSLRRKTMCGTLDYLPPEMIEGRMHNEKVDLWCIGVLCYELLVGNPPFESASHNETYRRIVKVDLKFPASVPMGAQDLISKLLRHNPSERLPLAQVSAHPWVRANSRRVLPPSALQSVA
Method: Aurora B inhibition was determined using the Z-Lyte assay kit from Invitrogen. The assay was performed using the recommended manufacturer's instructions with 128 μM ATP and 28 nM Aurora B (Invitrogen cat #PV3970). The % inhibition values were determined according to the manufacturer's directions and IC50 values were obtained using a non-linear 4 point logistic curve fit (XLfit4, IDBS)

Structure (SMILES)	IC50 [1] [µM]	IC50 [2] [µM]
O=C1Nc2ccccc2C1=Cc1ccc2c(-c3cnc4ccccc4c3)n[nH]c2c1 (mixture of isomers) [Example A95, (E and Z)-3-((3-(quinolin-3-yl)-1H-indazol-6-yl)methylene)indolin-2-one]	< 5	–
O=C1Nc2ccccc2C1=Cc1ccc2c(-c3ccn[nH]3)n[nH]c2c1 (mixture of isomers) [Example A98, (E and Z)-3-((3-(1H-pyrazol-5-yl)-1H-indazol-6-yl)methylene)-indolin-2-one]	< 5	–
Nc1ccc2c(c1)/C(=C\c1ccc3c(/C=C/c4ccncc4)n[nH]c3c1)C(=O)N2 [Example A122, (E)-5-amino-3-((3-((E)-2-(pyridin-4-yl)vinyl)-1H-indazol-6-yl)-methylene)indolin-2-one bis(2,2,2-trifluoroacetate)]	< 5	< 5
O=C1Nc2ccccc2C1=Cc1cc(/C=C/c2ccncc2)c2cn[nH]c2c1 (mixture of isomers) [Example A55, (E and Z)-3-((4-((E)-2-(pyridin-4-yl)vinyl)-1H-indazol-6-yl)methylene)indolin-2-one]	< 5	< 5
O=C1Nc2ccccc2C1=Cc1ccc2c(/C=C/c3ccc(CN4CCOCC4)cc3)n[nH]c2c1 (mixture of isomers) [Example A154, (E and Z)-3-((3-(4-(morpholinomethyl)styryl)-1H-indazol-6-yl)-methylene)indolin-2-one]	< 5	–
Cc1ccc2c(c1)C(=Nc1ccc3cn[nH]c3c1)C(=O)N2 [Example A74, (E and Z)-3-(1H-indazol-6-ylimino)-5-methylindolin-2-one]	< 5	–
O=C1Nc2ccccc2/C1=C\c1ccc2c(-c3nccs3)n[nH]c2c1 [Example A92, (E)-3-((3-(thiazol-2-yl)-1H-indazol-6-yl)methylene)indolin-2-one]	< 5	–
CN1CCN(c2ccc(-c3n[nH]c4ccc(C=C5C(=O)Nc6ccccc65)cc34)cn2)CC1 (mixture of isomers) [Example A155, (E and Z)-3-((3-(6-(4-methylpiperazin-1-yl)pyridin-3-yl)-1H-indazol-5-yl)methylene)indolin-2-one]	< 5	–
Cn1ccnc1/C=C/c1n[nH]c2cc(C=C3C(=O)Nc4ccccc43)ccc12 (mixture of isomers) [Example A105, (E and Z)-3-((3-((E)-2-(1-methyl-1H-imidazol-2-yl)vinyl)-1H-indazol-6-yl)methylene)indolin-2-one]	< 5	–
O=C1Nc2ccccc2C1=Cc1ccc2c(-c3cc4ccccc4[nH]3)n[nH]c2c1 (mixture of isomers) [Example A90, (E and Z)-3-((3-(1H-indol-2-yl)-1H-indazol-6-yl)methylene)indolin-2-one]	< 5	–
COc1ccc2c(c1)/C(=C\c1ccc3c(/C=C/c4ccc(CN(C)C)cc4)n[nH]c3c1)C(=O)N2 [Example A136a, (E)-3-((3-(4-((dimethylamino)methyl)styryl)-1H-indazol-6-yl)-methylene)-5-methoxyindolin-2-one 2,2,2-trifluoroacetate]	–	< 5
O=C1Nc2ccc(F)cc2C1=Nc1ccc2[nH]ncc2c1 [Example A79, (E and Z)-3-(1H-indazol-5-ylimino)-5-fluoroindolin-2-one]	5 to 50	–
CN1CCN(C(=O)/C=C/c2n[nH]c3cc(C=C4C(=O)Nc5ccccc54)ccc23)CC1 (mixture of isomers) [Example A66, (E and Z)-3-((3-((E)-3-(4-methylpiperazin-1-yl)-3-oxoprop-1-enyl)-1H-indazol-6-yl)methylene)indolin-2-one]	< 5	–
Cc1ccc2c(c1)C(=Nc1ccc3[nH]ncc3c1)C(=O)N2 [Example A78, (E and Z)-3-(1H-indazol-5-ylimino)-5-methylindolin-2-one]	< 5	–
O=C1Nc2ccccc2C1=Nc1ccc2cn[nH]c2c1 [Example A73, (E and Z)-3-(1H-indazol-6-ylimino)indolin-2-one]	< 5	–
O=C1Nc2ccccc2/C1=C\c1ccc2c(/C=C/c3ccc(C(F)(F)F)cc3)n[nH]c2c1 [Example A65, (E & Z)-3-((3-((E)-4-(trifluoromethyl)styryl)-1H-indazol-6-yl)-methylene)-indolin-2-one]	< 5	–
O=C1Nc2ccccc2C1=Cc1ccc2[nH]nc(/C=C/c3ccncc3)c2c1 (mixture of isomers) [Example A131, (E and Z)-3-((3-((E)-2-(pyridin-4-yl)vinyl)-1H-indazol-5-yl)-methylene)indolin-2-one hydrochloride]	< 5	–
O=C1Nc2cc(Br)ccc2C1=Nc1ccc2cn[nH]c2c1 [Example A76, (E and Z)-3-(1H-indazol-6-ylimino)-6-bromoindolin-2-one]	5 to 50	–
O=C1Nc2ccccc2/C1=C\c1ccc2c(C3CC3)n[nH]c2c1 [Example A102, (E)-3-((3-cyclopropyl-1H-indazol-6-yl)methylene)indolin-2-one]	< 5	–
O=C1Nc2ccccc2C1=Nc1ccc2[nH]ncc2c1 [Example A77, (E and Z)-3-(1H-indazol-5-ylimino)indolin-2-one]	5 to 50	–
O=C1Nc2ccc(F)cc2C1=Nc1ccc2cn[nH]c2c1 [Example A75, (E and Z)-3-(1H-indazol-6-ylimino)-5-fluoroindolin-2-one]	5 to 50	–

Continued, values first:

IC50 [1] [µM]	IC50 [2] [µM]	Structure (SMILES)
< 5	–	COc1cc2c(cc1OC)/C(=C\c1ccc3cn[nH]c3c1)C(=O)N2 [Example A135, (E)-3-((1H-indazol-6-yl)methylene)-5,6-dimethoxyindolin-2-one]
< 5	–	O=C1Nc2ccccc2/C1=C\c1cc(Cl)c2cn[nH]c2c1 [Example A52, (E)-3-((4-chloro-1H-indazol-6-yl)methylene)indolin-2-one]
< 5	–	O=C1Nc2c(Br)cccc2/C1=C\c1ccc2cn[nH]c2c1 [Example A44, (E)-3-((1H-indazol-6-yl)methylene)-7-bromoindolin-2-one]
< 5	–	O=C1Nc2cccc(Br)c2/C1=C/c1ccc2cn[nH]c2c1 [Example A133, (Z)-3-((1H-indazol-6-yl)methylene)-4-bromoindolin-2-one]
< 5	–	O=C1Nc2ncccc2/C1=C\c1ccc2[nH]ncc2c1 [Example A68, (E)-3-((1H-indazol-5-yl)methylene)-1H-pyrrolo[2,3-b]pyridin-2(3H)-one]
< 5	–	CC(C)NC(=O)Nc1cccc2c1NC(=O)/C2=C/c1ccc2cn[nH]c2c1 [Example A48, (E)-1-(3-((1H-indazol-6-yl)methylene)-2-oxoindolin-7-yl)-3-isopropyl-urea]
< 5	–	O=C1Nc2ccc(C(F)(F)F)cc2C1=Cc1ccc2cn[nH]c2c1 (mixture of isomers) [Example A82, (E and Z)-3-((1H-indazol-6-yl)methylene)-5-(trifluoromethyl)-indolin-2-one]
5 to 50	–	Nc1n[nH]c2ccc(C=C3C(=O)Nc4ccccc43)cc12 (mixture of isomers) [Example A40, (E & Z)-3-((3-amino-1H-indazol-5-yl)methylene)indolin-2-one]
< 5	–	O=C1Nc2ccccc2/C1=C\c1ccc2c(I)n[nH]c2c1 [Example A39, (E)-3-((3-iodo-1H-indazol-6-yl)methylene)indolin-2-one]
5 to 50	–	O=C1Nc2cc(-c3cccnc3)ccc2C1=Cc1ccc2cn[nH]c2c1 (mixture of isomers) [Example A28, (E and Z)-3-(3-((1H-indazol-6-yl)methylene)-2-oxoindolin-6-yl)pyridinium 2,2,2-trifluoroacetate]
< 5	–	O=CNc1cccc2c1NC(=O)C2=Cc1ccc2cn[nH]c2c1 (mixture of isomers) [Example A50, (E and Z)—N-(3-((1H-indazol-6-yl)methylene)-2-oxoindolin-7-yl)formamide]
< 5	–	COC(=O)c1cccc2c1NC(=O)C2=Cc1ccc2cn[nH]c2c1 (mixture of isomers) [Example A46, (E and Z)-methyl 3-((1H-indazol-6-yl)methylene)-2-oxoindoline-7-carboxylate]
< 5	–	O=C1Nc2ccccc2/C1=C/c1cc(Br)c2cn[nH]c2c1 [Example A53b, (Z)-3-((4-bromo-1H-indazol-6-yl)methylene)indolin-2-one]
< 5	–	O=C1Nc2ccc(Cl)nc2/C1=C\c1ccc2cn[nH]c2c1 [Example A134, (E)-3-((1H-indazol-6-yl)methylene)-5-chloro-1H-pyrrolo[3,2-b]pyridin-2(3H)-one]
